Test results: patent publication US6514964B1, “Fused cycloheptane and fused azacycloheptane compounds and their methods of use” (Amgen Inc., priority 1999, dated 2003)
Counter-ions that a name gives are not always drawn.

Each molecule was assayed on human umbilical cord endothelial cells (HUVEC) (assay: HUVEC proliferation assay and/or HUVEC adhesion assay). Conditions: bound stated for the listed compounds.
Type: cell-based
Procedure: HUVEC Proliferation Assay
1. Coat 3 NUNC polystyrene 96 well plate (VWR, 62409-120; lids 62409-118) with vitronectin (purified internally), fibronectin (Collaborative Biomed 40008A) or fibrinogen (Calbiochem 341578) 50 ng/well in 50 μl PBS, 1 hr @ RT.
a. rinse with 5 mls PBS (no Ca, Mg)
3. Rinse vitronectin plates 1× in 200 μl PBS −/− and add 3000 cells per well in 100 ul growth medium (EBM2 (Clonetics, CC-3156)+EGM2 bullet kit (CC-4176)).
4. Incubate 24 hours at 37° C. to allow attachment.
5. Remove growth medium and add 100 μl growth medium+drugs (25 μM and down by five fold steps in DMSO-0.25% final DMSO concentration).
6. Incubate for 3 days changing media (+drugs).
7. Remove non-adherent cells on Friday with Raindance 12 well plate washer.
8. Wash twice with 200 μl PBS (+Mg & Ca).
9. Tap out excess liquid.
10. Freeze @ −70° C. for 30 minutes.
11. Thaw plate and add 150 μl CyQuant fluorescent dye (Molecular Probes C-7026).
12. Read after 4 minutes @ 485λ (excitation), 530λ (emission).
1. Coat 2 NUNC polystyrene 96 well plates (VWR, 62409-120; lids 62409-118) with 50 μl vitronectin (purified internally) at 50 ng/well in PBS (−Mg & Ca), for 1 hour @ 37° C.
2. Rinse with PBS & block with 150 μl PBS/1% BSA (Sigma A8918), 1 hour at @ 37° C.
3. Prepare drug dilutions:
a. 400 fold concentrate in 100% DMSO
b. 0.25% DMSO [assay]final
c. 10 mM & down (25 μMfinal & down)
d. dilute 1 μl of 400 fold conc into 200 μl adhesion media
a. rinse with 5 ml PBS (no Ca, Mg)
6. Rinse blocking buffer from assay plate and add 50 μl of drug dilutions.
7. Resuspend cells in adhesion media, count and add 2e4 cells/well in 50 μl (4e5/ml).
8. Incubate 60 minutes @ 37° C.
9. Remove non-adherent cells with Raindance 12 well plate washer.
10. Wash twice with 200 μl PBS (+Mg & Ca)
11. Tap out excess liquid.
12. Freeze @ −70° C. for 30 minutes to overnite.
13. Thaw plate and add 150 μl CyQuant fluorescent dye (Molecular Probes C-7026).
14. Read after 2-5 minutes @ 485λ (excitation), 530λ (emission).
Adhesion medium: Media 199 (which contains […] and 0.8 mM MgSO4), 0.5% BSA, 10 mM HEPES, 1 mM MgCl2, and 1 mM MnCl2

SMILES	IC50 [µM]
O=C(O)CC1Cn2cc(C(=O)NCc3cnc4c(c3)CCCN4)nc2Cc2ccccc21 (centres unmarked) [Example 66, 2-{2-[N-(1,2,3,4-tetrahydropyridino [2,3-b]pyridin-6-ylmethyl)carbamoyl]-4H,5H,10H-benzo[d]imidazolo[1,2-a]azepin-5-yl}acetic acid]	≤ 30
CN(CCCCNc1ccccn1)C(=O)N1CCC(CC(=O)O)c2ccccc2C1 (centres unmarked) [Example 5, 2-(2-(N-methyl—N-(4-(2-pyridylamino)but-1-yl)carbamoyl)-1H,3H,4H,5H-benzo[e]azapin-5-yl)acetic acid]	≤ 30
O=C(O)CC1CCN(C(=O)OCCCCNc2ccccn2)Cc2ccccc21 (centres unmarked) [Example 20, 2-(2-(4-(2-pyridylamino)but-1-oxycarbonyl)-1H,3H,4H,5H-benzo[e]azapin-5-yl)acetic acid]	≤ 30
O=C(O)C[C@@H]1CCN(C(=O)CCCc2ccc3c(n2)NCCC3)Cc2ccccc21 [Example 55]	≤ 30
O=C(O)CC1CCN(C(=O)NCCCc2ccc3c(n2)NCCC3)Cc2cc(Br)ccc21 (centres unmarked) [Example 79, 2-{8-Bromo-2-[N-(3-(1,2,3,4-tetrahydropyridino[2,3-b]pyridin-7-yl)propyl)carbamoyl]-1H,3H,4H,5H-benzo[e]azepin-5-yl}acetic acid]	≤ 30
Nc1cccc(CCCNC(=O)N2CCC(CC(=O)O)c3ccccc3C2)n1 (centres unmarked) [Example 11, 2-(2-(N-(3-(6-amino-2-pyridyl)prop-1-yl)carbamoyl)-1H,3H,4H,5H-benzo[e]azapin-5-yl)acetic acid Hydrochloride]	≤ 30
O=C(O)CC1CN(CC(=O)NCCCCNc2ccccn2)CCc2ccccc21 (centres unmarked) [Example 27, 2-(3-({N-(4-(2-pyridylamino)but-1-yl)carbamoyl}methyl)-1H,2H,4H,5H-benzo[d]azepin-1-yl) acetic acid]	≤ 30
COc1ccc2c(c1)CN(C(=O)NCCCCNc1ccccn1)CCC2CC(=O)O (centres unmarked) [Example 22, 2-(8-methoxy-2-(N-(4-(2-pyridylamino)but-1-yl)carbamoyl)-1H,3H,4H,5H-benzo[e]azaerhydroepin-5-yl)acetic acid]	≤ 30
O=C(O)CC1CCN(C(=O)NCCCCNC2=NCCN2)Cc2ccccc21 (centres unmarked) [Example 75, 2-(2-(N-(4-(4,5-dihydroimidazo-2-yl)aminobut-1-yl)carbamoyl)-1H,3H,4H-5H-benzo[e]azapin-5-yl)acetic acid]	≤ 30
O=C(O)CC1CCN(C(=O)CNCCCNc2ccccn2)Cc2ccccc21 (centres unmarked) [Example 17]	≤ 30
CN(C)c1ccc2c(c1)CN(C(=O)NCCCc1ccc3c(n1)NCCC3)CCC2CC(=O)O (centres unmarked) [Example 84, 2-{8-(Dimethylamino)-2-[N-(3-(1,2,3,4-tetrahydropyridino[2,3-b]pyridin-7-yl)propyl)carbamoyl]-1H,3H,4H,5H-benzo[e]azepin-5-yl}acetic acid]	≤ 30
O=C(O)CC1CCN(C(=O)NCCCc2ccc3c(n2)NCCC3)Cc2cc(Br)c(Br)cc21 (centres unmarked) [Example 80, 2-{7,8-Dibromo-2-[N-(3-(1,2,3,4-tetrahydropyridino[2,3-b]pyridin-7-yl)propyl)carbamoyl]-1H,3H,4H,5 H-benzo[e]azepin-5-yl}acetic acid]	≤ 30
O=C(O)CC1CCN(C(=O)NCCCc2ccc3c(n2)NCCC3)Cc2cc(OCc3ccccc3)ccc21 (centres unmarked) [Example 72]	≤ 30
Cc1cc(CCCNC(=O)N2CCC(CC(=O)O)c3ccccc3C2)nc2c1CCCN2 (centres unmarked) [2-(2-{N-[3-(5-methyl-1,2,3,4-tetrahydropyridino[2,3-b]pyridin-7-yl)propyl]carbamoyl}-1H, 3H, 4H, 5H-benzo[e]azepin-5-yl)acetic acid]	≤ 30
O=C(O)C[C@@H]1CCN(C(=O)NCCc2ccc3c(n2)NCCC3)Cc2ccccc21 [Example 54, 2-((5S)-2-(N-(3-(1,2,3,4-tetrahydropyridino(2.3-b)pyridin-7-yl)ethyl)carbamoyl)-1H,3H,4H,5H-benzo[e]azapin-5-yl)acetic acid]	≤ 30
O=C(O)CC1CCN(C(=O)CNCCNc2ccccn2)Cc2ccccc21 (centres unmarked) [Example 16, 2-(2-(2-((2-(2-pyridylamino)ethyl)amino)acetyl)-1H,3H,4H,5H-benzo[e]azain-5-yl)acetic acid]	≤ 30
O=C(O)CC1CC(=O)N(CC(=O)NCCCNc2ccccn2)Cc2ccccc21 (centres unmarked) [Example 25, 2-(2-({N-(4-(2-pyridylamino)prop-1-yl)carbamoyl}methyl)-3-oxo-1H,4H,5H-benzo(e)azepin-5-yl) acetic acid]	≤ 30
CC(C)N(CCc1ccc2c(n1)NCCC2)C(=O)N1CCC(CC(=O)O)c2ccccc2C1 (centres unmarked) [Example 41, 2-{2-[N-(methylethyl)-N-(2-(1,2,3,4-tetrahydroyridino[2,3-b]pyridin-7-yl)ethyl)carbamoyl]-1H,3H,4H,5H-benzo[e]azepin-5-yl]acetic acid]	≤ 30
O=C(O)CC1CCN(S(=O)(=O)NCCCCNc2ccccn2)Cc2ccccc21 (centres unmarked) [Example 14, 2-(2-(((4-(2-pyridylamino)but-1-yl)amino)sulfonyl)-1H,3H,4H,5H-benzo[e]azapin-5-yl)acetic acid]	≤ 30
O=C(O)C[C@H]1CCN(C(=O)NCCc2ccc3c(n2)NCCC3)Cc2ccccc21 [Example 53, 2-((5R)-2-(N-(3-(1,2,3,4-tetrahydropyridino(2,3-b)pyridin-7-yl)ethyl)carbamoyl)-1H,3H,4H,5H-benzo[e]azapin-5-yl)acetic acid]	≤ 30
O=C(O)CC1CN(C(=O)NCCCCCNc2ccccn2)CCc2ccccc21 (centres unmarked) [Example 29, 2-(3-{N-(5-(2-pyridylamino)pent-1-yl)carbamoyl}-1H,2H,4H,5H-benzo[d]azepinyl)acetic acid]	≤ 30
O=C(O)CC1CCN(C(=O)CNCCCCNc2ccccn2)Cc2ccccc21 (centres unmarked) [Example 18]	≤ 30
CC(C)(C)OC(=O)Nc1cccc(CCCNC(=O)N2CCC(CC(=O)O)c3ccccc3C2)n1 (centres unmarked) [Example 12, 2-(2-(N-(3-(6-(tert-butoxycarbonylamino)-2-pyridyl)proyl)carbamoyl)-1H,3H,4H,5H-benzo[e]azapin-5-yl)acetic acid]	≤ 30
O=C(O)CC1CCN(CC(=O)NCCCNc2ccccn2)Cc2ccccc21 (centres unmarked) [Example 19, 2-(2-((N-(3-(2-pyridylamino)prop-1-yl)carbamoyl)methyl)-1H,3H,4H,5H-benzo[e]azapin-5-yl)acetic acid]	≤ 30
O=C(O)CC1CCN(C(=O)NC2CCC(Nc3ccccn3)CC2)Cc2ccccc21 (stereo not drawn) [Example 6, 2-(2-(N-(4-(2-pyridylamino)-trans-cyclohexyl)carbamoyl)-1H,3H,4H,5H-benzo[e]azapin-5-yl)acetic acid]	≤ 30
O=C(O)CC1CCN(C(=O)NCCCc2ccc3c(n2)NCCC3)Cc2cc(NS(=O)(=O)c3ccccc3)ccc21 (centres unmarked) [Example 82, 2-{8-[(Phenylsulfonyl)amino]-2-[N-(3-(1,2,3,4-tetrahydropyridino[2,3-b]pyridin-7-yl)propyl)carbamoyl]-1H,3H,4H,5H-benzo[e]azepin-5-yl}acetic acid]	≤ 30
